From publication PMC9090415, “Discovery of small molecule inhibitors of Plasmodium falciparum apicoplast DNA polymerase” (Journal of Enzyme Inhibition and Medicinal Chemistry, 2022)

Target: P. falciparum apicoplast DNA polymerase (Pf-apPOL) (Plasmodium falciparum, UniProt Q8ILY1)
Assay: Fluorescence-based high-throughput DNA polymerase assay (molecular beacon), primary screen and dose-response
Assay type: biochemical
Settings: for DNA Pol: 90 min, 10 µM; for IC50: supplemental file 2, sheet IC50 nontoxic compounds, Pf-apPOL
Experimental: The HT assay employs a molecular beacon, a stem-loop DNA template with a Cy3 dye and the Black Hole Quencher on the 3′ and 5′ ends of the DNA, respectively. Pf-apPOL concentration is based on a calculated absorptivity of ε280 = 56750 M^−1 cm^−1. Reactions were carried out at 25 °C, using Corning 3575 […] (well-volume, 20 µL). Assays testing for compound inhibition composed of reaction buffer (pH 7.9 in 50 mM potassium acetate, 20 mM Tris-acetate and 10 mM magnesium acetate), Pf-apPOL (20 nM), DNA substrate (20 nM), dNTPs (6 µM), and compound (10 µM in DMSO). The DNA and nucleotide substrates (dNTPs) were at concentrations of 20 nM and 6 µM, respectively, in the assay. Pf-apPOL was incubated in the reaction buffer with dNTPs and the compound of interest (10 µM, in the assay) at 25 °C for 10 min. The DNA substrate was then added and the reaction was allowed to proceed for 90 min at 25 °C.
Each assay plate contained 16 negative controls (no Pf-apPOL, DMSO present) and 16 positive controls (Pf-apPOL present, no DMSO). The fluorescence of each well was determined using a BioTek Synergy Neo fluorescence plate reader using excitation and emission wavelengths of 555 and 570 nm, respectively.
In the above, Min is the average of fluorescence emission of the negative controls (substrate only), Max the average fluorescence emission from the positive controls (enzyme + substrate), and Test the emission from the assays in the presence of compounds (enzyme + compound + substrates). […] […] The IC50 of each compound was determined using Equation (2): (2) IC50= Vmax/(1+ (I/IC50)^n)
In the above, n measures cooperativity, with n > 1 indicating synergistic binding of more than a single molecule of the compound.
To identify apPOL inhibitors we utilised our previously developed high-throughput DNA polymerase assay. The HT assay is based on a molecular beacon DNA template that forms a stem-loop with a Cy3 dye and the Black Hole Quencher on the 3′ and 5′ ends of the DNA, respectively. DNA polymerase activity extends an annealed primer through the stem region, displacing the fluorophore from the quencher, thereby increasing its fluorescence (Figure 1(A)). The assay accurately recapitulates the kinetic behaviour of apPOL, as measured through more conventional low-throughput gel-based assays. The Z′ factor for the assay described here was 0.9 across all plates (data not shown).
Figure 1. High-throughput screening. (A) The fluorescent-based DNA polymerase assay used to screen the compound libraries. The DNA template strand is a hairpin loop with a primer annealed to the loop. The 3’ end of the primer is 11 bases away from the 6 bp duplex. Strand displacement activity of the DNA polymerase separates the Cy3 dye from the Black hole quencher leading to an increase in fluorescent signal. (B) The high-throughput assay workflow. The DNA polymerase is incubated with […] compound for 10 min prior to addition of the hairpin substrate. The reaction is quenched at 3 different time points and the fluorescent signal is measured and % inhibition is determined using the provided equation.

[1] = primary screen value by plate and well
[2] = primary screen value of the 186 hits, unit not given

Sequence of P. falciparum apicoplast DNA polymerase (Pf-apPOL) (Q8ILY1 entry or part of it): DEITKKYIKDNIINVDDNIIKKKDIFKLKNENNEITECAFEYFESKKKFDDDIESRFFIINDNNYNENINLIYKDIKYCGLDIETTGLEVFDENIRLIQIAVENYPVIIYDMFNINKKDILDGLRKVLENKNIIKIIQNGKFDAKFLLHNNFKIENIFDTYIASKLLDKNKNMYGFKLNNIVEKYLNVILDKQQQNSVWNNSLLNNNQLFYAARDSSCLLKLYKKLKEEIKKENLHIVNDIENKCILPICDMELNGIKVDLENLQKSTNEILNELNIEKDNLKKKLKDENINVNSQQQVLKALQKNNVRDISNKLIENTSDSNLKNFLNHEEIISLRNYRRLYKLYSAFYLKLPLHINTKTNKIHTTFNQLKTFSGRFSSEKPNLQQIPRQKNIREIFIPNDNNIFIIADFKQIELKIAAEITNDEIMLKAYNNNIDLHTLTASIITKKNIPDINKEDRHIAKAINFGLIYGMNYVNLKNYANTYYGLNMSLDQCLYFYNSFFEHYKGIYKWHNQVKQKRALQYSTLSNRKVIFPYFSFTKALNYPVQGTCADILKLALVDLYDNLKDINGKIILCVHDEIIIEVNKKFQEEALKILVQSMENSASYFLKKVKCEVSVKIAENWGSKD

## CCCCCCCCCCCC1SCC(C(=O)O)N1C(C)=O (stereo not drawn) [Molecule 72]
DRC-1, concentration 2.5
  % inhibition Apo pol 10': 3.482%
  % inhibition Apol 90': 2.632%
  % inhibition apPOL 180': -2.715%
DRC-1, concentration 5
  % inhibition Apo pol 10': 5.699%
  % inhibition Apol 90': 5.518%
  % inhibition apPOL 180': -0.6083%
DRC-1, concentration 10
  % inhibition Apo pol 10': 15.2619%
  % inhibition Apol 90': 12.9803%
  % inhibition apPOL 180': 5.5577%
DRC-1, concentration 20
  % inhibition Apo pol 10': 24.1814%
  % inhibition Apol 90': 20.4329%
  % inhibition apPOL 180': 11.4894%
DRC-1, concentration 40
  % inhibition Apo pol 10': 35.0794%
  % inhibition Apol 90': 28.5438%
  % inhibition apPOL 180': 17.8626%
DRC-1, concentration 80
  % inhibition Apo pol 10': 89.6133%
  % inhibition Apol 90': 88.679%
  % inhibition apPOL 180': 86.0518%
DRC-2, concentration 2.5
  % inhibition Apo pol 5': 13%
  % inhibition Apol 40': 10%
  % inhibition ApPOL 90': 6%
  % inhibition apPOL 180': 0.516%
DRC-2, concentration 5
  % inhibition Apo pol 5': 16%
  % inhibition Apol 40': 15%
  % inhibition ApPOL 90': 13%
  % inhibition apPOL 180': 5%
DRC-2, concentration 10
  % inhibition Apo pol 5': 26%
  % inhibition Apol 40': 29%
  % inhibition ApPOL 90': 26%
  % inhibition apPOL 180': 17%
DRC-2, concentration 20
  % inhibition Apo pol 5': 38%
  % inhibition Apol 40': 44%
  % inhibition ApPOL 90': 43%
  % inhibition apPOL 180': 34%
DRC-2, concentration 40
  % inhibition Apo pol 5': 54%
  % inhibition Apol 40': 65%
  % inhibition ApPOL 90': 67%
  % inhibition apPOL 180': 64%
DRC-2, concentration 80
  % inhibition Apo pol 5': 59%
  % inhibition Apol 40': 76%
  % inhibition ApPOL 90': 81%
  % inhibition apPOL 180': 84%
conc. 2.5, DRC-2
  % inhibition Apo pol 5': 13%
conc. 5, DRC-2
  % inhibition ApPOL 90': 13%
conc. 10, DRC-2
  % inhibition Apo pol 5': 26%
  % inhibition ApPOL 90': 26%
[1]
  DNA Pol: 90
[2]
  DNA Pol: 90
  IC50: 48.9 µM

## O=C(Nc1cccc(C(=O)Nc2ccc(S(=O)(=O)O)c3cc(S(=O)(=O)O)cc(S(=O)(=O)O)c23)c1)Nc1cccc(C(=O)Nc2ccc(S(=O)(=O)O)c3cc(S(=O)(=O)O)cc(S(=O)(=O)O)c23)c1 [Molecule 39]
  IC50: 6.77 µM

## Cc1cccc(-c2nnc3ccc(NS(=O)(=O)c4ccc(C)c(C)c4)nn23)c1 [Molecule 40, Cc1cccc(c1)c1nnc2n1nc(cc2)NS(=O)(=O)c1ccc(c(c1)C)C]
DRC-1, concentration 2.5
  % inhibition Apo pol 10': 17.5333%
  % inhibition Apol 90': 8.645%
  % inhibition apPOL 180': 2.98%
DRC-1, concentration 5
  % inhibition Apo pol 10': 15.8571%
  % inhibition Apol 90': 6.674%
  % inhibition apPOL 180': 3.293%
DRC-1, concentration 10
  % inhibition Apo pol 10': 58.8718%
  % inhibition Apol 90': 42.202%
  % inhibition apPOL 180': 32.359%
DRC-1, concentration 20
  % inhibition Apo pol 10': 64.4117%
  % inhibition Apol 90': 48.6788%
  % inhibition apPOL 180': 37.8584%
DRC-1, concentration 40
  % inhibition Apo pol 10': 83.8171%
  % inhibition Apol 90': 74.666%
  % inhibition apPOL 180': 67.3017%
DRC-1, concentration 80
  % inhibition Apo pol 10': 87.6455%
  % inhibition Apol 90': 86.8335%
  % inhibition apPOL 180': 87.5255%
DRC-2, concentration 2.5
  % inhibition Apo pol 5': 5%
  % inhibition Apol 40': 4.3%
  % inhibition ApPOL 90': 3.29%
  % inhibition apPOL 180': -0.478%
DRC-2, concentration 5
  % inhibition Apo pol 5': 15%
  % inhibition Apol 40': 18%
  % inhibition ApPOL 90': 17%
  % inhibition apPOL 180': 11%
DRC-2, concentration 10
  % inhibition Apo pol 5': 22%
  % inhibition Apol 40': 30%
  % inhibition ApPOL 90': 29%
  % inhibition apPOL 180': 23%
DRC-2, concentration 20
  % inhibition Apo pol 5': 26%
  % inhibition Apol 40': 44%
  % inhibition ApPOL 90': 46%
  % inhibition apPOL 180': 40%
DRC-2, concentration 40
  % inhibition Apo pol 5': 22%
  % inhibition Apol 40': 51%
  % inhibition ApPOL 90': 57%
  % inhibition apPOL 180': 60%
DRC-2, concentration 80
  % inhibition Apo pol 5': 17%
  % inhibition Apol 40': 53%
  % inhibition ApPOL 90': 62%
  % inhibition apPOL 180': 68%
conc. 5, DRC-2
  % inhibition ApPOL 90': 17%
conc. 10, DRC-2
  % inhibition Apo pol 5': 22%
conc. 40, DRC-2
  % inhibition Apo pol 5': 22%
conc. 80, DRC-2
  % inhibition Apo pol 5': 17%
[1]
  DNA Pol: 50
[2]
  DNA Pol: 50

## O=C(Cc1cccs1)N1CCN(c2nc(CN3CCOCC3)cs2)CC1 [Molecule 35]
  IC50: 11.2 µM
